Test results: ChEMBL document CHEMBL1201862, “PubChem BioAssay data set” (2004)
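The compound was tested at five concentrations on cells cultured in 96-well plates, with a 48-hour exposure period. GI50 is the concentration that inhibits growth by half.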 The source made the active and inactive calls. No stated cut-off is given here; in the data, active = GI50 up to about 1.1 µM and inactive = higher.

What was measured:
Assay in all cases: DTP human tumour cell line panel, 48 h
SNB-19 = test system: SNB-19
SF-539 = test system: SF-539
SK-MEL-2 = test system: SK-MEL-2
M19-MEL = test system: M19-MEL
EKVX = test system: EKVX
HL-60 = test system: HL-60
SK-MEL-28 = test system: SK-MEL-28
UACC-62 = test system: UACC-62
HOP-92 = test system: HOP-92
HCT-116 = test system: HCT-116
SN12C = test system: SN12C
MOLT-4 = test system: MOLT-4
LOX IMVI = test system: LOX IMVI
K562 = test system: K562
CCRF-CEM = test system: CCRF-CEM
SK-MEL-5 = test system: SK-MEL-5
OVCAR-5 = test system: OVCAR-5
MDA-MB-231 = test system: MDA-MB-231
MDA-N = test system: MDA-N
PC-3 = test system: PC-3

Measured: GI50

CC1(C)OCN(c2ccc(N3CCOCC3)cc2)Cn2c1nc1ccccc12
inactive: SNB-19 > 100 µM | SF-539 88.1 µM | SK-MEL-2 > 100 µM | M19-MEL > 100 µM | EKVX > 100 µM | HL-60 26.4 µM | SK-MEL-28 > 100 µM | UACC-62 > 100 µM | HOP-92 > 100 µM | HCT-116 65.9 µM | SN12C > 100 µM | MOLT-4 > 100 µM | LOX IMVI 31.8 µM | K562 > 100 µM | CCRF-CEM 40.7 µM

C/C(CN1C(=O)c2ccccc2C1=O)=N\NS(=O)(=O)c1ccc(Cl)cc1
inactive: SNB-19 > 100 µM | SF-539 > 100 µM | SK-MEL-2 > 100 µM | SK-MEL-5 > 100 µM | M19-MEL > 100 µM | EKVX > 100 µM | OVCAR-5 > 100 µM | HL-60 > 100 µM | UACC-62 > 100 µM | HCT-116 > 100 µM | SN12C 18.8 µM | MOLT-4 > 100 µM | K562 > 100 µM | CCRF-CEM > 100 µM

CC(=O)C1C(=O)C(=O)N(CCN2C(=O)C(=O)C(C(C)=O)C2=O)C1=O (centres undefined)
inactive: SNB-19 > 100 µM | SF-539 > 100 µM | SK-MEL-2 > 100 µM | SK-MEL-5 > 100 µM | M19-MEL > 100 µM | EKVX > 100 µM | OVCAR-5 > 100 µM | SK-MEL-28 > 100 µM | UACC-62 > 100 µM | HOP-92 > 100 µM | HCT-116 > 100 µM | SN12C > 100 µM | LOX IMVI > 100 µM | K562 > 100 µM

CCc1c(OC(C)=O)c2c(NC3OC(COC(C)=O)C(OC(C)=O)C(OC(C)=O)C3OC(C)=O)nc(OC)nc2oc1=O (centres undefined)
inactive: SNB-19 > 100 µM | SF-539 > 100 µM | SK-MEL-2 > 100 µM | SK-MEL-5 > 100 µM | M19-MEL > 100 µM | EKVX > 100 µM | OVCAR-5 > 100 µM | HL-60 > 100 µM | UACC-62 > 100 µM | HCT-116 > 100 µM | SN12C > 100 µM | MOLT-4 > 100 µM | LOX IMVI > 100 µM | K562 > 100 µM | CCRF-CEM > 100 µM

CC(=O)OC12CCCCC1C1(CCCC1)NC2=O (centres undefined)
inactive: SNB-19 > 100 µM | SF-539 > 100 µM | M19-MEL > 100 µM | EKVX > 100 µM | OVCAR-5 > 100 µM | HL-60 > 100 µM | SK-MEL-28 > 100 µM | UACC-62 > 100 µM | HCT-116 > 100 µM | SN12C > 100 µM | MOLT-4 > 100 µM | LOX IMVI > 100 µM | K562 > 100 µM | CCRF-CEM > 100 µM

Cc1ccccc1-n1c2nc(=O)n(C)c(=O)c-2nc2ccccc21
inactive: SNB-19 14.6 µM | SF-539 15.2 µM | SK-MEL-2 15.1 µM | SK-MEL-5 10.6 µM | M19-MEL 1.85 µM | EKVX 11.8 µM | OVCAR-5 20.5 µM | HL-60 11.1 µM | UACC-62 3.48 µM | HCT-116 14.6 µM | SN12C 13.3 µM | MOLT-4 17.8 µM | LOX IMVI 15.7 µM | K562 18.2 µM | CCRF-CEM 13.3 µM

COc1cccc(N2C(=O)[C@H]3[C@H]4CC(C(C)(C)C)CC[C@H]4c4c([nH]c5ccccc45)[C@H]3C2=O)c1 (some centres undefined)
inactive: SNB-19 18.9 µM | SF-539 23 µM | SK-MEL-2 20.3 µM | SK-MEL-5 18 µM | M19-MEL 19 µM | EKVX 20 µM | HL-60 28 µM | SK-MEL-28 18.7 µM | UACC-62 14.6 µM | SN12C 13.4 µM | MOLT-4 11.9 µM | LOX IMVI 16.5 µM | K562 14 µM | CCRF-CEM 13.7 µM

CC(=O)Nc1ccc(NS(=O)(=O)c2ccc3nc(C)n(NS(=O)(=O)c4ccc(NC(C)=O)cc4)c(=O)c3c2)cc1
inactive: SNB-19 > 100 µM | SF-539 > 100 µM | SK-MEL-2 > 100 µM | SK-MEL-5 > 100 µM | EKVX > 100 µM | OVCAR-5 > 100 µM | MDA-MB-231 > 100 µM | MDA-N > 100 µM | HL-60 > 100 µM | SK-MEL-28 > 100 µM | UACC-62 > 100 µM | HOP-92 > 100 µM | HCT-116 > 100 µM | SN12C > 100 µM | MOLT-4 > 100 µM | LOX IMVI > 100 µM | K562 > 100 µM | PC-3 > 100 µM | CCRF-CEM > 100 µM

CCOc1cc(C2CC(c3ccc(NS(=O)(=O)c4cc([N+](=O)[O-])ccc4C)cc3)=NN2)ccc1O (centres undefined)
inactive: SNB-19 30.3 µM | SF-539 45.7 µM | SK-MEL-2 21.7 µM | SK-MEL-5 19.2 µM | EKVX 21.4 µM | OVCAR-5 32.1 µM | MDA-MB-231 25.5 µM | MDA-N 33.2 µM | HL-60 15.5 µM | SK-MEL-28 32.4 µM | UACC-62 14 µM | HOP-92 45 µM | HCT-116 20.4 µM | SN12C 20 µM | MOLT-4 17.5 µM | LOX IMVI 22.5 µM | K562 24.5 µM | PC-3 31 µM | CCRF-CEM 30.8 µM
